{"source": "paper PMC10809370", "about": "“Dye-Decolorizing Peroxidase of Streptomyces coelicolor (ScDyPB) Exists as a Dynamic Mixture of Kinetically Different Oligomers” (ACS Omega, 2024)", "key": {"[1]": {"molecular_target": "T1, Dye-decolorizing peroxidase ScDyPB (Streptomyces coelicolor, UniProt Q9FBY9)", "T1 construct": "gene SCO7193", "T1 sequence (Q9FBY9 1-316)": "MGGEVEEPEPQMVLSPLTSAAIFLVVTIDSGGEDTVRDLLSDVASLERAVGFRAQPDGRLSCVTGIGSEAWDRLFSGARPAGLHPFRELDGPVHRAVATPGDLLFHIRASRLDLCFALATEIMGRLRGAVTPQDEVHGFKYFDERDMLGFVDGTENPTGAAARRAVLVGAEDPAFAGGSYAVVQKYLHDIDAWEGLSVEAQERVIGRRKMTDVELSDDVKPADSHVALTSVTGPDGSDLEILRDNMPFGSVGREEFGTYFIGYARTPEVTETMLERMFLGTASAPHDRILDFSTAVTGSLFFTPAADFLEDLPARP", "test": "biochemical"}, "[2]": {"molecular_target": "T1, Dye-decolorizing peroxidase ScDyPB", "test": "initial rates of MHQ oxidation to methylquinone at […] nm, purified enzyme", "assay_type": "biochemical"}, "[3]": {"molecular_target": "T1, Dye-decolorizing peroxidase ScDyPB", "test": "dye oxidation rate at […] nm, […] dye, […] H2O2", "assay_type": "biochemical"}, "[4]": {"molecular_target": "T1, Dye-decolorizing peroxidase ScDyPB", "test": "dye oxidation rate at […] nm, […] dye, […] H2O2", "assay_type": "biochemical", "remark": "listed apart in the source"}, "purified protein": {"substrate": "OO", "test": "purified protein", "conditions": "heme heme in its resting state"}, "[5]": {"molecular_target": "the molecule itself", "test": "SEC; Superdex 75 Increase 10/300 GL, 20 mM Tris-HCl, 0.1 M NaCl, pH 7.5; 100 uL of 18.1 uM ScDyPB injected; calibrated with standard proteins; apparent molecular weights"}}, "data": [{"molecule": "CCn1c(=NN=c2sc3cc(S(=O)(=O)O)ccc3n2CC)sc2cc(S(=O)(=O)O)ccc21", "note": "[ABTS, 2,2′-azino-di(3-ethyl-benzothiazoline-6-sulfonic acid)]", "values": [{"measurement": "Ki", "setting": "[1]", "result": "4.12 ± 0.36", "unit": "µM"}]}, {"molecule": "Cc1cc(O)ccc1O", "note": "[MHQ, methylhydroquinone]", "values": [{"measurement": "initial rates of MHQ oxidation to methylquinone at 251 nm, purified enzyme", "setting": "[2]", "result": "the rate of the oxidation of both ABTS and MHQ scaled linearly with the concentration of the ScDyPB in the cuvette"}]}, {"molecule": "Nc1c(S(=O)(=O)O)cc(Nc2ccc(S(=O)(=O)O)c(Nc3nc(Cl)nc(Cl)n3)c2)c2c1C(=O)c1ccccc1C2=O", "note": "[RB4, reactive blue 4]", "values": [{"measurement": "dye oxidation rate at 610 nm, 0.1 mM dye, 1.0 mM H2O2", "setting": "[3]", "result": "0.66 ± 0.04", "unit": "s^–1"}]}, {"molecule": "Nc1c(S(=O)(=O)O)cc(Nc2cccc(S(=O)(=O)CCOS(=O)(=O)O)c2)c2c1C(=O)c1ccccc1C2=O", "note": "[RB19, reactive blue 19]", "values": [{"measurement": "dye oxidation rate at 595 nm, 0.1 mM dye, 1.0 mM H2O2", "setting": "[4]", "result": "0.58 ± 0.02", "unit": "s^–1"}]}, {"molecule": "Dye-decolorizing peroxidase from S. coelicolor A3(2) (ScDyPB) (enzyme, Streptomyces coelicolor A3(2), Dye-decolorizing peroxidase ScDyPB, Streptomyces coelicolor A3(2), UniProtKB Q9FBY9; molecular weight printed as 34 kDa; Heme protein, reconstituted with hemin; also called type B dye-decolorizing peroxidase of Streptomyces coelicolor; subfamily B DyP; source: E. coli BL21 (DE3), purified, reconstituted with hemin) MGGEVEEPEPQMVLSPLTSAAIFLVVTIDSGGEDTVRDLLSDVASLERAVGFRAQPDGRLSCVTGIGSEAWDRLFSGARPAGLHPFRELDGPVHRAVATPGDLLFHIRASRLDLCFALATEIMGRLRGAVTPQDEVHGFKYFDERDMLGFVDGTENPTGAAARRAVLVGAEDPAFAGGSYAVVQKYLHDIDAWEGLSVEAQERVIGRRKMTDVELSDDVKPADSHVALTSVTGPDGSDLEILRDNMPFGSVGREEFGTYFIGYARTPEVTETMLERMFLGTASAPHDRILDFSTAVTGSLFFTPAADFLEDLPARP", "values": [{"measurement": "Km", "setting": "purified protein", "result": "890 ± 60", "unit": "µM"}, {"measurement": "stoichiometry N", "setting": "[5]", "result": 3}]}]}
